Paper PMC5218480 (PLoS ONE, 2017)

Tested on: MV-4-11 cells
Experiment: Gene expression microarray analysis (Affymetrix PrimeView) and GSEA
Type: cell-based, human
Design: RFU PODN (11730768_x_at) / Fold change /veh PODN (11730768_x_at) / RFU LINC00158 (11744669_a_at) / Fold change /veh LINC00158 (11744669_a_at) / RFU DUSP10 (11751237_a_at) / Fold change /veh DUSP10 (11751237_a_at) / RFU ID3 (11757404_x_at) / Fold change /veh ID3 (11757404_x_at) / RFU PLEKHG5 (11737974_s_at) / Fold change /veh PLEKHG5 (11737974_s_at) / RFU LRRC4B (11730491_at) / Fold change /veh LRRC4B (11730491_at) / RFU GIMAP4 (11747438_a_at) / Fold change /veh GIMAP4 (11747438_a_at) / RFU KRT8 (11758183_x_at) / Fold change /veh KRT8 (11758183_x_at) / RFU CNN1 (11734310_a_at) / Fold change /veh CNN1 (11734310_a_at) / RFU VPS37D (11726825_at) / Fold change /veh VPS37D (11726825_at) / RFU C10orf10 (11716522_x_at) / Fold change /veh C10orf10 (11716522_x_at) / RFU KIR2DL2 /// KIR2DL4 /// KIR2DL5A /// KIR2DL5B /// KIR2DS1 /// KIR2DS2 /// KIR2DS3 /// KIR2DS4 /// KIR3DL3 /// KIR3DL3 /// KIR3DS1 (11738374_at) / Fold change /veh KIR2DL2 /// KIR2DL4 /// KIR2DL5A /// KIR2DL5B /// KIR2DS1 /// KIR2DS2 /// KIR2DS3 /// KIR2DS4 /// KIR3DL3 /// KIR3DL3 /// KIR3DS1 (11738374_at) / RFU C1QL1 (11718748_at) / Fold change /veh C1QL1 (11718748_at) / RFU TMPRSS4 (11747572_a_at) / Fold change /veh TMPRSS4 (11747572_a_at) / RFU HAMP (11756126_x_at) / Fold change /veh HAMP (11756126_x_at) / RFU RNFT2 (11725882_a_at) / Fold change /veh RNFT2 (11725882_a_at) / RFU NR4A2 (11747474_a_at) / Fold change /veh NR4A2 (11747474_a_at) / RFU ABCC12 (11746883_a_at) / Fold change /veh ABCC12 (11746883_a_at) / RFU TMEM136 (11760407_x_at) / Fold change /veh TMEM136 (11760407_x_at) / RFU CLDN22 /// WWC2 (11732394_at) / Fold change /veh CLDN22 /// WWC2 (11732394_at) / RFU HLA-DPB1 (11760878_x_at) / Fold change /veh HLA-DPB1 (11760878_x_at) / RFU SPINT1 (11716480_a_at) / Fold change /veh SPINT1 (11716480_a_at) / RFU GAP43 (11754022_s_at) / Fold change /veh GAP43 (11754022_s_at) / RFU A4GNT (11735810_at) / Fold change /veh A4GNT (11735810_at) / RFU PRB3 (11715151_x_at) / Fold change /veh PRB3 (11715151_x_at) / RFU TUBB4B (11761932_at) / Fold change /veh TUBB4B (11761932_at) / RFU CAPN14 (11732068_a_at) / Fold change /veh CAPN14 (11732068_a_at) / RFU TMCC2 (11721928_a_at) / Fold change /veh TMCC2 (11721928_a_at) / RFU IRGQ (11745062_a_at) / Fold change /veh IRGQ (11745062_a_at) / RFU FAM174B (11720279_a_at) / Fold change /veh FAM174B (11720279_a_at) / RFU TMPRSS4 (11748680_a_at) / Fold change /veh TMPRSS4 (11748680_a_at) / RFU FAM212B (11763350_a_at) / Fold change /veh FAM212B (11763350_a_at) / RFU PLEKHG5 (11743358_a_at) / Fold change /veh PLEKHG5 (11743358_a_at) / RFU ZSCAN30 (11745921_a_at) / Fold change /veh ZSCAN30 (11745921_a_at) / RFU CMKLR1 (11741424_a_at) / Fold change /veh CMKLR1 (11741424_a_at) / RFU LOC101060620 /// MAPK8IP1 (11723275_at) / Fold change /veh LOC101060620 /// MAPK8IP1 (11723275_at) / RFU SPTSSB (11747773_x_at) / Fold change /veh SPTSSB (11747773_x_at) / RFU PRSS12 (11739890_at) / Fold change /veh PRSS12 (11739890_at) / RFU BIN1 (11741810_x_at) / Fold change /veh BIN1 (11741810_x_at) / RFU WNT11 (11732464_a_at) / Fold change /veh WNT11 (11732464_a_at) / RFU C10orf10 (11716521_a_at) / Fold change /veh C10orf10 (11716521_a_at) / RFU C5orf56 (11738089_at) / Fold change /veh C5orf56 (11738089_at) / RFU CYB561 (11721691_x_at) / Fold change /veh CYB561 (11721691_x_at) / RFU ANKRD19P (11752326_a_at) / Fold change /veh ANKRD19P (11752326_a_at) / RFU OR2T12 /// OR2T33 /// OR2T8 (11738714_s_at) / Fold change /veh OR2T12 /// OR2T33 /// OR2T8 (11738714_s_at) / RFU VCAN (11748164_a_at) / Fold change /veh VCAN (11748164_a_at) / RFU JSRP1 (11732532_at) / Fold change /veh JSRP1 (11732532_at) / RFU KRTAP10-11 (11738290_x_at) / Fold change /veh KRTAP10-11 (11738290_x_at) / RFU MYO3A (11730013_a_at) / Fold change /veh MYO3A (11730013_a_at) / RFU EBF3 (11725865_a_at) / Fold change /veh EBF3 (11725865_a_at) / RFU CAMK2N1 (11719241_x_at) / Fold change /veh CAMK2N1 (11719241_x_at) / RFU C5orf56 (11738088_a_at) / Fold change /veh C5orf56 (11738088_a_at) / RFU OLFML3 (11715873_a_at) / Fold change /veh OLFML3 (11715873_a_at) / RFU LOC100653217 /// NTM (11731650_a_at) / Fold change /veh LOC100653217 /// NTM (11731650_a_at) / RFU MAPK11 (11762145_a_at) / Fold change /veh MAPK11 (11762145_a_at) / RFU FIZ1 (11724087_x_at) / Fold change /veh FIZ1 (11724087_x_at) / RFU OASL (11726364_x_at) / Fold change /veh OASL (11726364_x_at) / RFU SOX15 (11748057_x_at) / Fold change /veh SOX15 (11748057_x_at) / RFU CD79A (11719716_a_at) / Fold change /veh CD79A (11719716_a_at) / RFU HIST1H1D (11736915_at) / Fold change /veh HIST1H1D (11736915_at) / RFU CASKIN2 (11723855_a_at) / Fold change /veh CASKIN2 (11723855_a_at) / RFU LOC730098 (11760151_x_at) / Fold change /veh LOC730098 (11760151_x_at) / RFU OR4N2 (11742367_at) / Fold change /veh OR4N2 (11742367_at) / RFU PRRT2 (11749266_a_at) / Fold change /veh PRRT2 (11749266_a_at) / RFU SNX32 (11753110_a_at) / Fold change /veh SNX32 (11753110_a_at) / RFU CDHR5 (11726645_a_at) / Fold change /veh CDHR5 (11726645_a_at) / RFU RCAN1 (11760418_a_at) / Fold change /veh RCAN1 (11760418_a_at) / RFU FAM167A (11723789_a_at) / Fold change /veh FAM167A (11723789_a_at) / RFU FAM26E (11764081_at) / Fold change /veh FAM26E (11764081_at) / RFU ISYNA1 (11749810_s_at) / Fold change /veh ISYNA1 (11749810_s_at) / RFU ACY1 (11761880_at) / Fold change /veh ACY1 (11761880_at) / RFU 11764098_at / Fold change /veh 11764098_at / RFU SAMD14 (11745864_x_at) / Fold change /veh SAMD14 (11745864_x_at) / RFU NPB (11741838_a_at) / Fold change /veh NPB (11741838_a_at) / RFU TMPRSS6 (11731388_a_at) / Fold change /veh TMPRSS6 (11731388_a_at) / RFU KRTAP10-2 (11738614_at) / Fold change /veh KRTAP10-2 (11738614_at) / RFU ARHGAP8 /// PRR5-ARHGAP8 (11727945_x_at) / Fold change /veh ARHGAP8 /// PRR5-ARHGAP8 (11727945_x_at) / RFU KRTAP5-7 /// NADSYN1 (11734609_at) / Fold change /veh KRTAP5-7 /// NADSYN1 (11734609_at) / RFU RASL12 (11751679_a_at) / Fold change /veh RASL12 (11751679_a_at) / RFU CDKN2B (11736163_a_at) / Fold change /veh CDKN2B (11736163_a_at) / RFU PRF1 (11729649_at) / Fold change /veh PRF1 (11729649_at) / RFU, ZNF638 /// ZNF638-IT1 / Fold change vs veh, ZNF638 /// ZNF638-IT1 / RFU, PANK3 / Fold change vs veh, PANK3 / RFU, SH3YL1 / Fold change vs veh, SH3YL1 / RFU, ZEB2 / Fold change vs veh, ZEB2 / RFU, NRIP1 / Fold change vs veh, NRIP1 / RFU, PTTG1IP / Fold change vs veh, PTTG1IP / RFU, CAPN2 / Fold change vs veh, CAPN2 / RFU, MED14 / Fold change vs veh, MED14 / RFU, SNORA58 / Fold change vs veh, SNORA58 / RFU, C1orf63 / Fold change vs veh, C1orf63 / RFU, LRRFIP1 / Fold change vs veh, LRRFIP1 / RFU, NDUFAF7 / Fold change vs veh, NDUFAF7 / RFU, SLC12A2 / Fold change vs veh, SLC12A2 / RFU, IBTK / Fold change vs veh, IBTK / RFU, ESF1 / Fold change vs veh, ESF1 / Fold change vs veh, TMEM50B / RFU, TAOK1 / Fold change vs veh, TAOK1 / RFU, ACBD3 / Fold change vs veh, ACBD3 / RFU, TMA16 / Fold change vs veh, TMA16 / RFU, RWDD3 / Fold change vs veh, RWDD3 / RFU, BCAT1 / Fold change vs veh, BCAT1 / RFU, EDEM3 / Fold change vs veh, EDEM3 / RFU, TMEM33 / Fold change vs veh, TMEM33 / RFU, WDR75 / Fold change vs veh, WDR75 / RFU, AHCTF1 / Fold change vs veh, AHCTF1 / RFU, TFRC / Fold change vs veh, TFRC / RFU, ZDHHC17 / Fold change vs veh, ZDHHC17 / RFU, NOM1 / Fold change vs veh, NOM1 / RFU, ARL8B / Fold change vs veh, ARL8B / RFU, ZBTB11 / Fold change vs veh, ZBTB11 / RFU, TAMM41 / Fold change vs veh, TAMM41 / RFU, KIAA1704 /// LOC100996395 / Fold change vs veh, KIAA1704 /// LOC100996395 / RFU, ING1 / Fold change vs veh, ING1 / RFU, TRMT61B / Fold change vs veh, TRMT61B / RFU, FUBP3 / Fold change vs veh, FUBP3 / RFU, TP53 / Fold change vs veh, TP53 / RFU, TNKS2 / Fold change vs veh, TNKS2 / RFU, ZFP14 / Fold change vs veh, ZFP14 / RFU, ACTR2 / Fold change vs veh, ACTR2 / RFU, PPP3R1 / Fold change vs veh, PPP3R1 / RFU, PIK3R1 / Fold change vs veh, PIK3R1 / RFU, HNRNPA1 / Fold change vs veh, HNRNPA1 / RFU, RNF170 / Fold change vs veh, RNF170 / RFU, ZNF28 / Fold change vs veh, ZNF28 / RFU, RNGTT / Fold change vs veh, RNGTT / RFU, OGT / Fold change vs veh, OGT / RFU, BRD1 / Fold change vs veh, BRD1 / RFU, MARS / Fold change vs veh, MARS / RFU, ZNF655 / Fold change vs veh, ZNF655 / RFU, FAHD1 / Fold change vs veh, FAHD1 / RFU, BDP1 / Fold change vs veh, BDP1 / RFU, LRRCC1 / Fold change vs veh, LRRCC1 / RFU, ARID1A / Fold change vs veh, ARID1A / RFU, ZNF146 / Fold change vs veh, ZNF146 / RFU, ZNF330 / Fold change vs veh, ZNF330 / RFU, GPN3 / Fold change vs veh, GPN3 / RFU, C9orf123 / Fold change vs veh, C9orf123 / RFU, N4BP2L2 / Fold change vs veh, N4BP2L2 / RFU, ARFIP1 / Fold change vs veh, ARFIP1 / RFU, FAM179B / Fold change vs veh, FAM179B / RFU, BCL10 / Fold change vs veh, BCL10 / RFU, UHRF1BP1L / Fold change vs veh, UHRF1BP1L / RFU, BET1 / Fold change vs veh, BET1 / RFU, CNOT2 / Fold change vs veh, CNOT2 / RFU, ZNF268 / Fold change vs veh, ZNF268 / Fold change vs veh, ZNF507 / RFU, DGCR2 / Fold change vs veh, DGCR2 / RFU, WDSUB1 / Fold change vs veh, WDSUB1 / Fold change vs veh, HSP90B1 /// MIR3652 / RFU, ADSS / Fold change vs veh, ADSS / RFU, GK / Fold change vs veh, GK / RFU, ZNF148 / Fold change vs veh, ZNF148 / RFU, TAF9 / Fold change vs veh, TAF9 / RFU, SLC1A5 / Fold change vs veh, SLC1A5 / RFU, SLMO2 / Fold change vs veh, SLMO2 / RFU, ABCC4 / Fold change vs veh, ABCC4 / RFU, LOC101060439 /// RAP1B / Fold change vs veh, LOC101060439 /// RAP1B / RFU, RFX7 / Fold change vs veh, RFX7 / RFU, GTPBP10 / Fold change vs veh, GTPBP10 / RFU, CNEP1R1 / Fold change vs veh, CNEP1R1 / RFU, BIVM-ERCC5 /// ERCC5 / Fold change vs veh, BIVM-ERCC5 /// ERCC5 / RFU, ILF3 / Fold change vs veh, ILF3 / RFU 11762660_at / Fold change /veh 11762660_at / RFU VCAN (11757783_s_at) / Fold change /veh VCAN (11757783_s_at) / RFU DDX43 (11728927_at) / Fold change /veh DDX43 (11728927_at) / RFU KRT8 (11758188_x_at) / Fold change /veh KRT8 (11758188_x_at) / RFU NKD1 (11759106_at) / Fold change /veh NKD1 (11759106_at) / RFU SRD5A1 (11742802_a_at) / Fold change /veh SRD5A1 (11742802_a_at) / RFU TPSAB1 /// TPSB2 (11721975_s_at) / Fold change /veh TPSAB1 /// TPSB2 (11721975_s_at) / RFU GSTM3 (11746129_a_at) / Fold change /veh GSTM3 (11746129_a_at) / RFU IL23R (11737362_x_at) / Fold change /veh IL23R (11737362_x_at) / RFU TMEM51 (11727254_a_at) / Fold change /veh TMEM51 (11727254_a_at) / RFU PIWIL2 (11732686_x_at) / Fold change /veh PIWIL2 (11732686_x_at) / RFU ORM1 (11744905_x_at) / Fold change /veh ORM1 (11744905_x_at) / RFU CCDC152 (11743942_at) / Fold change /veh CCDC152 (11743942_at) / RFU ECM1 (11717891_a_at) / Fold change /veh ECM1 (11717891_a_at) / RFU IL23R (11748794_a_at) / Fold change /veh IL23R (11748794_a_at) / RFU TNFAIP8L3 (11732012_x_at) / Fold change /veh TNFAIP8L3 (11732012_x_at) / RFU MBOAT4 (11741988_at) / Fold change /veh MBOAT4 (11741988_at) / RFU 11764193_at / Fold change /veh 11764193_at / RFU TMEM53 (11763286_at) / Fold change /veh TMEM53 (11763286_at) / RFU MAGEB2 (11727129_at) / Fold change /veh MAGEB2 (11727129_at) / RFU TMEM200A (11744735_a_at) / Fold change /veh TMEM200A (11744735_a_at) / RFU CCDC152 (11751479_a_at) / Fold change /veh CCDC152 (11751479_a_at) / RFU FAM211A (11726209_a_at) / Fold change /veh FAM211A (11726209_a_at) / RFU RGS16 (11746705_a_at) / Fold change /veh RGS16 (11746705_a_at) / RFU VCAN (11755009_s_at) / Fold change /veh VCAN (11755009_s_at) / RFU RHOB (11743442_s_at) / Fold change /veh RHOB (11743442_s_at) / RFU RGS16 (11720943_a_at) / Fold change /veh RGS16 (11720943_a_at) / RFU RGS16 (11720944_at) / Fold change /veh RGS16 (11720944_at) / RFU, VPS4B / Fold change vs veh, VPS4B / RFU, CREB1 / Fold change vs veh, CREB1 / RFU, DNAJC13 / Fold change vs veh, DNAJC13 / RFU, GNAQ / Fold change vs veh, GNAQ / RFU, CDK5R1 / Fold change vs veh, CDK5R1 / RFU, ZRANB3 / Fold change vs veh, ZRANB3 / RFU, CUL4A / Fold change vs veh, CUL4A / RFU, CCNY / Fold change vs veh, CCNY / RFU, UFL1 / Fold change vs veh, UFL1 / RFU, COG3 / Fold change vs veh, COG3 / RFU, DIAPH2 / Fold change vs veh, DIAPH2 / RFU, SKA2 / Fold change vs veh, SKA2 / RFU, AFF3 / Fold change vs veh, AFF3 / RFU, LMF1 / Fold change vs veh, LMF1 / RFU, IPO11 / Fold change vs veh, IPO11 / RFU, DFFB / Fold change vs veh, DFFB / RFU, FOXP1 / Fold change vs veh, FOXP1 / RFU, CARD8 / Fold change vs veh, CARD8 / RFU, STRN3 / Fold change vs veh, STRN3 / RFU, ADK / Fold change vs veh, ADK / RFU, RASSF2 / Fold change vs veh, RASSF2 / RFU, WIPF1 / Fold change vs veh, WIPF1 / RFU, LARP1B / Fold change vs veh, LARP1B / RFU, RASA1 / Fold change vs veh, RASA1 / RFU, RB1 / Fold change vs veh, RB1 / RFU, PPFIA1 / Fold change vs veh, PPFIA1 / RFU, MAT2A / Fold change vs veh, MAT2A / RFU, CCT5 / Fold change vs veh, CCT5 / RFU, WDR92 / Fold change vs veh, WDR92 / RFU, CUX1 / Fold change vs veh, CUX1 / RFU, TTC7A / Fold change vs veh, TTC7A / RFU, TMEM135 / Fold change vs veh, TMEM135 / RFU, DEPTOR / Fold change vs veh, DEPTOR / RFU, CPM / Fold change vs veh, CPM / RFU, DNAJB6 / Fold change vs veh, DNAJB6 / RFU, CACNA2D3 / Fold change vs veh, CACNA2D3 / RFU, DTX4 / Fold change vs veh, DTX4 / RFU, TFCP2 / Fold change vs veh, TFCP2 / RFU, GMCL1 /// GMCL1P1 / Fold change vs veh, GMCL1 /// GMCL1P1 / RFU, AEBP2 / Fold change vs veh, AEBP2 / RFU, SNHG1 /// SNORD22 /// SNORD25 /// SNORD26 /// SNORD27 /// SNORD28 /// SNORD29 /// SNORD31 / Fold change vs veh, SNHG1 /// SNORD22 /// SNORD25 /// SNORD26 /// SNORD27 /// SNORD28 /// SNORD29 /// SNORD31 / Fold change (Aza/veh), C12orf56 (ProbeSet 11735607_a_at) / Fold change (ACY-1035/veh), C12orf56 (ProbeSet 11735607_a_at) / Fold change (Aza/veh), FGFR1OP (ProbeSet 11751329_s_at) / Fold change (ACY-1035/veh), FGFR1OP (ProbeSet 11751329_s_at) / Fold change (Aza/veh), VPS36 (ProbeSet 11739960_a_at) / Fold change (ACY-1035/veh), VPS36 (ProbeSet 11739960_a_at) / RFU SYPL1 (11715823_x_at) / Fold change /veh SYPL1 (11715823_x_at) / RFU IGFBP7 (11715501_s_at) / Fold change /veh IGFBP7 (11715501_s_at) / RFU REEP3 (11722064_at) / Fold change /veh REEP3 (11722064_at) / RFU IGLL1 (11728026_x_at) / Fold change /veh IGLL1 (11728026_x_at): dose or concentration left out as unconfirmed
Details: MV-4-11 cells, 48 hours

Nc1ccc(-c2cccs2)cc1NC(=O)c1ccc2c(c1)cc(C1CC1)n2CCN1CCOCC1 [ACY-1035]
RFU HIST1H1D (11736915_at): 13.65 RFU
